Structures can show the parent of a compound that is named as a salt.
Biological target: T1, CDK11A (Homo sapiens, UniProt Q9UQ88)
T1 sequence (Q9UQ88 346-783): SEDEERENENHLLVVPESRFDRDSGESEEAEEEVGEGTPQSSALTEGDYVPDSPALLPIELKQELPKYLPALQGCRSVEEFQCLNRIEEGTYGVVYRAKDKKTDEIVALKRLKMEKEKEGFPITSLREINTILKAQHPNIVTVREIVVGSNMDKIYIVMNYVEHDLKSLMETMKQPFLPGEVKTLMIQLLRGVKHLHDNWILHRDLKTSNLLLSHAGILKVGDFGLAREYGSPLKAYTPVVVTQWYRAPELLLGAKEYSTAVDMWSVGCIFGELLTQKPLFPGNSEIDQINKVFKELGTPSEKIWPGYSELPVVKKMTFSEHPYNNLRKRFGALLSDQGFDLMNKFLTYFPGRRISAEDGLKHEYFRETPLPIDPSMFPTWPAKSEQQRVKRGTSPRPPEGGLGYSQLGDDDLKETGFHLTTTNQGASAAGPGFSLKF
Settings: displacement of SNS-032-Atto590 probe (0.002 μM) from CDK11A-p58 (0.032 uM), fluorescence polarization
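Note: compound preincubated 30 min with CDK11A-p58, then probe added and polarization (mP) read 15 min later, 0% displacement is probe plus enzyme, 100% is probe alone.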

Procedure: Biochemical Kinase Inhibition Assay on CDK11 in Displacement Assay Format
Displacement Assay Format
Fluorescence Polarization (FP) experiments were carried out at room temperature using no-binding black 384-well microplates (Corning, NY), in 50 mM Tris HCl, pH 8, 10 mM MgCl2, 1 mM DTT, 1 mM CHAPS in a final volume of 60 μl. The plate reader was the Pherastar microplate reader (BMG). Polarization values were read using excitation and emission wavelengths of 590 and 675 nm, respectively. All FP values are expressed as mP units.
Compounds were 4-folds serially diluted in 100% DMSO and added directly to the CDK11A-p58 solution using the pin tool (V & P Scientific): 0.2 ul of the different compound concentrations in 20 ul of enzyme solution. After an incubation of 30 minutes at r.t., 40 ul of probe solution were added. […] The Pherastar reading is performed after 15 minutes of all components incubation. For each assay, high controls (equivalent to 0% displacement) contain probe, CDK11A-p58, and 0.33% DMSO, whereas low controls (equivalent to 100% displacement) contain only probe and 0.33% DMSO. Controls are used for the Z′ and signal to background evaluation.
The data per each molecule are analyzed by Prism SW or an internally customized version of the SW package “Assay Explorer” which provides sigmoidal fittings of the ten-dilution curves for DC50 determination using a 4 parameters logistic equation:
where x is the logarithm of the inhibitor concentration, y is the response; y starts at bottom and goes to top with a sigmoid shape.

DC50	SMILES
393 nM	CN1CCC(C(=O)Nc2n[nH]c3ccc(-c4ccccc4Cl)cc23)CC1 [cpd 85, N-[5-(2-Chlorophenyl)-1H-indazol-3-yl]-1-methylpiperidine-4-carboxamide hydrochloride]
988 nM	CN1CCC(C(=O)Nc2n[nH]c3ccc(-c4ccc(F)cc4)cc23)CC1 [cpd 87, N-[5-(4-Fluorophenyl)-1H-indazol-3-yl]-1-methylpiperidine-4-carboxamide hydrochloride]
822 nM	CCc1ccccc1-c1ccc2[nH]nc(NC(=O)C3CCN(C)CC3)c2c1 [cpd 88, N-[5-(2-Ethylphenyl)-1H-indazol-3-yl]-1-methylpiperidine-4-carboxamide hydrochloride]
784 nM	CN1CCC(C(=O)Nc2n[nH]c3ccc(-c4cccc(C#N)c4)cc23)CC1 [cpd 89, N-[5-(3-Cyanophenyl)-1H-indazol-3-yl]-1-methylpiperidine-4-carboxamide hydrochloride]
592 nM	CN1CCC(C(=O)Nc2n[nH]c3ccc(-c4ccc(N)cc4)cc23)CC1 [cpd 90, N-[5-(4-Aminophenyl)-1H-indazol-3-yl]-1-methylpiperidine-4-carboxamide dihydrochloride]
938 nM	CN1CCC(C(=O)Nc2n[nH]c3ccc(-c4ccccc4)cc23)CC1 [cpd 93, 1-Methyl-N-(5-phenyl-1H-indazol-3-yl)piperidine-4-carboxamide hydrochloride]
692 nM	CN1CCC(C(=O)Nc2n[nH]c3ccc(-c4cccc(F)c4)cc23)CC1 [cpd 101, N-[5-(3-Fluorophenyl)-1H-indazol-3-yl]-1-methylpiperidine-4-carboxamide hydrochloride]
364 nM	CN1CCC(C(=O)Nc2n[nH]c3ccc(-c4c(F)cccc4F)cc23)CC1 [cpd 105, N-[5-(2,6-Difluorophenyl)-1H-indazol-3-yl]-1-methylpiperidine-4-carboxamide hydrochloride]
200 nM	CN1CCC(C(=O)Nc2n[nH]c3ccc(-c4ccc(N)cc4Cl)cc23)CC1 [cpd 107, N-[5-(4-Amino-2-chlorophenyl)-1H-indazol-3-yl]-1-methylpiperidine-4-carboxamide dihydrochloride]
63 nM	CN1CCC(C(=O)Nc2n[nH]c3ccc(-c4cc(C#N)ccc4Cl)cc23)CC1 [cpd 116, N-[5-(2-Chloro-5-cyanophenyl)-1H-indazol-3-yl]-1-methylpiperidine-4-carboxamide trifluoroacetate]
619 nM	COc1cc(F)c(-c2ccc3[nH]nc(NC(=O)C4CCN(C)CC4)c3c2)c(F)c1 [cpd 120, N-[5-(2,6-Difluoro-4-methoxyphenyl)-1H-indazol-3-yl]-1-methylpiperidine-4-carboxamide hydrochloride]
71 nM	O=C(Nc1n[nH]c2ccc(OCCF)cc12)[C@@H]1CCCNC1 [cpd 227, (3R)-N-[5-(2-Fluoroethoxy)-1H-indazol-3-yl]piperidine-3-carboxamide hydrochloride]
406 nM	COCCOc1ccc2[nH]nc(NC(=O)[C@@H]3CCCNC3)c2c1 [cpd 228, (3R)-N-[5-(2-Methoxyethoxy)-1H-indazol-3-yl]piperidine-3-carboxamide hydrochloride]
20 nM	CCOc1ccc2[nH]nc(NC(=O)[C@@H]3CCCNC3)c2c1 [cpd 229, (3R)-N-(5-Ethoxy-1H-indazol-3-yl)piperidine-3-carboxamide hydrochloride]
27 nM	CC(C)Oc1ccc2[nH]nc(NC(=O)[C@@H]3CCCNC3)c2c1 [cpd 230, (3R)-N-[5-(Propan-2-yloxy)-1H-indazol-3-yl]piperidine-3-carboxamide hydrochloride]

The remaining lines, values behind:

SMILES	DC50
CN1CCC(C(=O)Nc2n[nH]c3ccc(-c4cc(Cl)ccc4Cl)cc23)CC1 [cpd 80, N-[5-(2,5-Dichlorophenyl)-1H-indazol-3-yl]-1-methylpiperidine-4-carboxamide hydrochloride]	216 nM
Cc1ccc(Cl)c(-c2ccc3[nH]nc(NC(=O)C4CCN(C)CC4)c3c2)c1 [cpd 86, N-[5-(2-Chloro-5-methylphenyl)-1H-indazol-3-yl]-1-methylpiperidine-4-carboxamide hydrochloride]	502 nM
CN1CCC(C(=O)Nc2n[nH]c3ccc(-c4ccc(S(N)(=O)=O)cc4)cc23)CC1 [cpd 92, 1-Methyl-N-[5-(4-sulfamoylphenyl)-1H-indazol-3-yl]piperidine-4-carboxamide hydrochloride]	799 nM
CN1CCC(C(=O)Nc2n[nH]c3ccc(-c4cc(C(F)(F)F)ccc4Cl)cc23)CC1 [cpd 94, N-{5-[2-Chloro-5-(trifluoromethyl)phenyl]-1H-indazol-3-yl}-1-methylpiperidine-4-carboxamide hydrochloride]	592 nM
CN1CCC(C(=O)Nc2n[nH]c3ccc(-c4cccc(Cl)c4Cl)cc23)CC1 [cpd 97, N-[5-(2,3-Dichlorophenyl)-1H-indazol-3-yl]-1-methylpiperidine-4-carboxamide hydrochloride]	643 nM
CN1CCC(C(=O)Nc2n[nH]c3ccc(-c4cccc(F)c4F)cc23)CC1 [cpd 99, N-[5-(2,3-Difluorophenyl)-1H-indazol-3-yl]-1-methylpiperidine-4-carboxamide hydrochloride]	173 nM
CN1CCC(C(=O)Nc2n[nH]c3ccc(-c4ccccc4C(F)(F)F)cc23)CC1 [cpd 104, 1-Methyl-N-{5-[2-(trifluoromethyl)phenyl]-1H-indazol-3-yl}piperidine-4-carboxamide hydrochloride]	330 nM
CN1CCC(C(=O)Nc2n[nH]c3ccc(-c4ccc(Cl)cc4Cl)cc23)CC1 [cpd 106, N-[5-(2,4-Dichlorophenyl)-1H-indazol-3-yl]-1-methylpiperidine-4-carboxamide hydrochloride]	259 nM
CN1CCC(C(=O)Nc2n[nH]c3ccc(-c4c(Cl)cc(Cl)cc4Cl)cc23)CC1 [cpd 108, 1-Methyl-N-[5-(2,4,6-trichlorophenyl)-1H-indazol-3-yl]piperidine-4-carboxamide hydrochloride]	150 nM
CN1CCC(C(=O)Nc2n[nH]c3ccc(-c4ccc(C(N)=O)cc4)cc23)CC1 [cpd 109, N-[5-(4-Carbamoylphenyl)-1H-indazol-3-yl]-1-methylpiperidine-4-carboxamide hydrochloride]	967 nM
CN1CCC(C(=O)Nc2n[nH]c3ccc(-c4ccc(O)cc4Cl)cc23)CC1 [cpd 111, N-[5-(2-Chloro-4-hydroxyphenyl)-1H-indazol-3-yl]-1-methylpiperidine-4-carboxamide hydrochloride]	141 nM
Cc1cc(C#N)ccc1-c1ccc2[nH]nc(NC(=O)C3CCN(C)CC3)c2c1 [cpd 113, N-[5-(4-Cyano-2-methylphenyl)-1H-indazol-3-yl]-1-methylpiperidine-4-carboxamide hydrochloride]	534 nM
CN1CCC(C(=O)Nc2n[nH]c3ccc(-c4cc([N+](=O)[O-])ccc4F)cc23)CC1 [cpd 115, N-[5-(2-Fluoro-5-nitrophenyl)-1H-indazol-3-yl]-1-methylpiperidine-4-carboxamide hydrochloride]	165 nM
CN1CCC(C(=O)Nc2n[nH]c3ccc(-c4cc(C(N)=O)ccc4Cl)cc23)CC1 [cpd 117, N-[5-(5-Carbamoyl-2-chlorophenyl)-1H-indazol-3-yl]-1-methylpiperidine-4-carboxamide trifluoroacetate]	153 nM
CN1CCC(C(=O)Nc2n[nH]c3ccc(-c4ccc(C=O)cc4F)cc23)CC1 [cpd 118, N-[5-(2-Fluoro-4-formylphenyl)-1H-indazol-3-yl]-1-methylpiperidine-4-carboxamide hydrochloride]	467 nM
Cc1ccc(-c2ccc3[nH]nc(NC(=O)C4CCN(C)CC4)c3c2)c(F)c1 [cpd 119, N-[5-(2-Fluoro-4-methylphenyl)-1H-indazol-3-yl]-1-methylpiperidine-4-carboxamide hydrochloride]	665 nM
CC(C)(C)COC(=O)n1nc(NC(=O)[C@@H]2CCCNC2)c2cc(-c3cc(C#N)ccc3Cl)ccc21 [cpd 212, 2,2-Dimethylpropyl 5-(2-chloro-5-cyanophenyl)-3-{[(3R)-piperidin-3-ylcarbonyl]amino}-1H-indazole-1-carboxylate hydrochloride]	821 nM
CCCCOc1ccc2[nH]nc(NC(=O)[C@@H]3CCCNC3)c2c1 [cpd 231, (3R)-N-(5-Butoxy-1H-indazol-3-yl)piperidine-3-carboxamide hydrochloride]	71 nM

Reference: patent US20250206724A1, “SUBSTITUTED 3-AMINO INDAZOLE DERIVATIVES AS KINASE INHIBITORS” (NERVIANO MEDICAL SCIENCES S.R.L., priority 2022, published 2025)
